Legend:
[1] = in vitro; details: PAMPA
[2] = in vitro; details: human, liver microsomes
[3] = in vitro; details: PAMPA; remark: listed apart in the source
[4] = target: hERG (Homo sapiens, UniProt Q12809, species not given); test: hERG channel inhibition; format: cell-based
[5] = in vitro; details: human, liver microsomes; remark: listed apart in the source
[6] = in vitro; details: human, liver microsomes; remark: listed apart in the source
[7] = target: CYP2D6 (Homo sapiens, UniProt P10635); test: in vitro
[8] = target: T1, CYP1A2 (Homo sapiens, UniProt P05177); test: in vitro
T1 sequence (P05177 1-516): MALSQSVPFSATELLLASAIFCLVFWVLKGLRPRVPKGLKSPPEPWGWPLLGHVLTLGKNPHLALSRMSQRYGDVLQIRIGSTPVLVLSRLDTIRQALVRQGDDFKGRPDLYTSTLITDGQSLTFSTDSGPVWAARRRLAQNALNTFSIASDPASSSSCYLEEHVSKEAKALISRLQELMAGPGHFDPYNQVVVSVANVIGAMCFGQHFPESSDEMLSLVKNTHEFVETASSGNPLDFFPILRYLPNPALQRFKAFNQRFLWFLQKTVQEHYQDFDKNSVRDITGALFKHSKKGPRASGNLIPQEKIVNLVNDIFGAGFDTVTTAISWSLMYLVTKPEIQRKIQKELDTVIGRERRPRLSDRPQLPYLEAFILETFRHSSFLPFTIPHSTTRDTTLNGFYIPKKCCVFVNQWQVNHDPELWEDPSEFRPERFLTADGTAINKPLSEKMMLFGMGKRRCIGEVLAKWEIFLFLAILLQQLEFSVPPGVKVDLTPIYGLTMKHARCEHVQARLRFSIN

[9] = target: CYP2C19 (Homo sapiens, UniProt P33261); test: in vitro
[10] = target: CYP2C9 (Homo sapiens, UniProt P11712); test: in vitro
Sequence of CYP2C9 (P11712 whole entry): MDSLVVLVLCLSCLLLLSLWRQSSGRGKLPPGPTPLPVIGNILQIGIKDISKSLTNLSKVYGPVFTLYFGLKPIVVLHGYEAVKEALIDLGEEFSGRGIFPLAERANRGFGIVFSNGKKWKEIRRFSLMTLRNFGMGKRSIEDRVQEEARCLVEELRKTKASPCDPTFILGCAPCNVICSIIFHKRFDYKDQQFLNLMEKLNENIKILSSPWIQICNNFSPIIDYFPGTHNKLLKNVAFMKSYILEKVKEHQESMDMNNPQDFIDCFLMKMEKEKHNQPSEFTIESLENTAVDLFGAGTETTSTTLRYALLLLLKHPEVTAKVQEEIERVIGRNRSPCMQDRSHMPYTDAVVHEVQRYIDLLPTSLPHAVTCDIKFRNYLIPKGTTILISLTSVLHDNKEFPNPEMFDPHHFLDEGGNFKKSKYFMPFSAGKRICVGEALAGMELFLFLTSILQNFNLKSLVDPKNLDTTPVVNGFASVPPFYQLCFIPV

Sequence of hERG (Q12809 whole entry): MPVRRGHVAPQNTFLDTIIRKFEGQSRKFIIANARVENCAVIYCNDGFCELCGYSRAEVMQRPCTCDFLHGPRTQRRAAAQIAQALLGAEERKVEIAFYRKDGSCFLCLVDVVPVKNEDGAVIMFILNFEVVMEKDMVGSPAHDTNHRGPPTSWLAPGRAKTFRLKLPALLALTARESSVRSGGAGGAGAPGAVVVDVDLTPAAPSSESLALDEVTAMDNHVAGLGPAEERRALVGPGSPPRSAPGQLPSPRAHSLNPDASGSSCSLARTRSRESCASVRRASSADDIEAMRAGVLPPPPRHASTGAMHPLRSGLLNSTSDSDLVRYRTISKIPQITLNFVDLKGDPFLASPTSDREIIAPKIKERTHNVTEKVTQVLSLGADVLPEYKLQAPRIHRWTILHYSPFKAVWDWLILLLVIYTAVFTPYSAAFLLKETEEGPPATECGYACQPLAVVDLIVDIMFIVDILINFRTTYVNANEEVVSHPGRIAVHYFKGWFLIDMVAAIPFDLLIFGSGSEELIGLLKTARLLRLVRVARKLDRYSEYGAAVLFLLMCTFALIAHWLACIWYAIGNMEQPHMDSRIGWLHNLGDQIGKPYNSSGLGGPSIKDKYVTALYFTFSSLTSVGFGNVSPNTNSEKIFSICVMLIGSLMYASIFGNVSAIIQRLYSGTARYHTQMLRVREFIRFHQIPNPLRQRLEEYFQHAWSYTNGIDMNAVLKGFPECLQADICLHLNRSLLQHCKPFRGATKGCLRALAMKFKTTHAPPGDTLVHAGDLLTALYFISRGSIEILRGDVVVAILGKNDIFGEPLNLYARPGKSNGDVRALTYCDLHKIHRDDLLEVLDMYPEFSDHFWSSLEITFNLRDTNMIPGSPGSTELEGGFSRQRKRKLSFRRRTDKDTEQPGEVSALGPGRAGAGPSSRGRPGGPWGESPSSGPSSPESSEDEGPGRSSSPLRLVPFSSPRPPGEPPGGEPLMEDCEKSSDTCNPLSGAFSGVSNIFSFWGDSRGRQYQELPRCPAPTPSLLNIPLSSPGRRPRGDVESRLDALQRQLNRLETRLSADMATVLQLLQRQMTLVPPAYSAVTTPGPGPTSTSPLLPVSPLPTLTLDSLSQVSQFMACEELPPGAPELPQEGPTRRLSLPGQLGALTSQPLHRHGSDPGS
Sequence of CYP2D6 (P10635 whole entry): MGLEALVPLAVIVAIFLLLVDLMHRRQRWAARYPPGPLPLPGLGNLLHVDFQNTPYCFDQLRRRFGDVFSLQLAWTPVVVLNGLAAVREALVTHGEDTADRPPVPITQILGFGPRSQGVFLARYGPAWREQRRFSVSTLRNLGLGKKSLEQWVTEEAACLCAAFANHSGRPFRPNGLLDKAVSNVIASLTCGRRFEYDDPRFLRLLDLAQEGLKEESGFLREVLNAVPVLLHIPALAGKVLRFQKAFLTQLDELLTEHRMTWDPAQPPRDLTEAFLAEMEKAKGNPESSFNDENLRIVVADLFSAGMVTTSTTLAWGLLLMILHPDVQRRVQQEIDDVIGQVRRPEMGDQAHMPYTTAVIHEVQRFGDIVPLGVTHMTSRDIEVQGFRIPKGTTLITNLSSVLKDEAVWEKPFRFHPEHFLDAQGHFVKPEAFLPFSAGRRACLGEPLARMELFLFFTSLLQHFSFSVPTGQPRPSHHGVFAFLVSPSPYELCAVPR
Sequence of CYP2C19 (P33261 whole entry): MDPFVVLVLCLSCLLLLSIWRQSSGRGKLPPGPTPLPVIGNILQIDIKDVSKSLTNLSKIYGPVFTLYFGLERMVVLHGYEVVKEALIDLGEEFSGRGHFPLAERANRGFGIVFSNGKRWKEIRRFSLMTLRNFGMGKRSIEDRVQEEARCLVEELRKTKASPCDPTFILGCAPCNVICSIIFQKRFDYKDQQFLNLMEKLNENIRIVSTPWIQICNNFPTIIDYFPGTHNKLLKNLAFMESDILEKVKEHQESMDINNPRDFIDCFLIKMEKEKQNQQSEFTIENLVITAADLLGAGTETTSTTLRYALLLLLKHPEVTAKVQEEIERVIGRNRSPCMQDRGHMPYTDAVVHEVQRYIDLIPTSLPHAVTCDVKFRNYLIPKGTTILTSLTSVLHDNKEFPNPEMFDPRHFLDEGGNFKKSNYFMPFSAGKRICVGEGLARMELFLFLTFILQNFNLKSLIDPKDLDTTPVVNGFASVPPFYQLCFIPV

Structure (SMILES)	Papp [1] [×10⁻⁶ cm/s]	Papp [3] [×10⁻⁶ cm/s]	other results
CC1=C(C(=O)Nc2ccc(Cl)cc2)C(c2ccccc2)NC(=S)N1 (stereo not shown) [CT1]	3.6 ± 0.1	–	–
CC1=C(C(=O)Nc2ccc(Cl)cc2)C(c2ccc(Cl)cc2)NC(=S)N1 (stereo not shown) [CT2]	7.1 ± 0.1	–	–
COc1ccc(C2NC(=S)NC(C)=C2C(=O)Nc2ccc(Cl)cc2)cc1 (stereo not shown) [CT3]	3.4 ± 0.3	–	–
CC1=C(C(=O)Nc2ccc(Cl)cc2)C(c2ccc(C)cc2)NC(=S)N1 (stereo not shown) [CT4]	4.6 ± 0.2	–	–
CC1=C(C(=O)Nc2ccc(Cl)cc2)C(c2ccc(Cl)c(Cl)c2)NC(=S)N1 (stereo not shown) [CT5]	7.6 ± 1	–	–
CC1=C(C(=O)Nc2ccc(Cl)cc2)C(c2ccccc2)NC(=O)N1 (stereo not shown) [CU1]	9.5 ± 0.2	–	–
CC1=C(C(=O)Nc2ccc(Cl)cc2)C(c2ccc(Cl)cc2)NC(=O)N1 (stereo not shown) [CU2]	7.7 ± 0.2	–	–
COc1ccc(C2NC(=O)NC(C)=C2C(=O)Nc2ccc(Cl)cc2)cc1 (stereo not shown) [CU3]	5.9 ± 0.2	–	–
CC1=C(C(=O)Nc2ccc(Cl)cc2)C(c2ccc(C)cc2)NC(=O)N1 (stereo not shown) [CU4]	5.3 ± 0.2	–	–
CC1=C(C(=O)Nc2ccc(Cl)cc2)C(c2ccc(Cl)c(Cl)c2)NC(=O)N1 (stereo not shown) [CU5]	13.6 ± 0.5	–	–
CCOC(=O)C1=C(C)NC(=S)NC1c1ccc(Cl)cc1 (stereo not shown) [T2]	–	12.2 ± 0.7	remaining at 1 h [2]: 77.7%; IC50 [4]: > 10 µM; microsomal CLint [5]: 7.8 µL/min/mg; half-life [6]: 2.36 h
CCOC(=O)C1=C(C)NC(=S)NC1c1ccc(OC)cc1 (stereo not shown) [T3, Ethyl 4-(4-methoxyphenyl)-6-methyl-2-thioxo-1,2,3,4-tetrahydropyrimidine-5-carboxylate]	–	–	inhibition at 1 µM [7]: -3.2 ± 0.2%; inhibition at 1 µM [8]: -13.3 ± 2%; inhibition at 1 µM [9]: 11.7 ± 4.5%; inhibition at 1 µM [10]: 3.7 ± 1.1%
CCOC(=O)C1=C(C)NC(=S)NC1c1ccc(OC)cc1 (stereo not shown) [T3]	–	8.1 ± 0.5	IC50 [4]: > 10 µM
CCOC(=O)C1=C(C)NC(=S)NC1c1ccc(C)cc1 (stereo not shown) [T4]	–	10.3 ± 0.3	–
CCOC(=O)C1=C(C)NC(=S)NC1c1ccc(Cl)c(Cl)c1 (stereo not shown) [T5]	–	16.2 ± 0.5	–
CCOC(=O)C1=C(C)NC(=S)NC1c1ccc(C(F)(F)F)cc1 (stereo not shown) [T6]	–	> 30	–
CCOC(=O)C1=C(C)NC(=S)NC1c1ccccc1Cl (stereo not shown) [T9, Ethyl 4-(2-chlorophenyl)-6-methyl-2-thioxo-1,2,3,4-tetrahydropyrimidine-5-carboxylate]	–	–	remaining at 1 h [2]: 82.4%; microsomal CLint [5]: 3 µL/min/mg; half-life [6]: 3.69 h
CCOC(=O)C1=C(C)NC(=S)NC1c1ccc(OCC)cc1 (stereo not shown) [T10]	–	0.1	–
CCOC(=O)C1=C(C)NC(=S)NC1c1cccc(O)c1 (stereo not shown) [T12]	–	17.7 ± 0.9	–
CCOC(=O)C1=C(C)NC(=S)NC1c1ccc(F)cc1 (stereo not shown) [T13]	–	18.4 ± 1.6	–
COC(=O)C1=C(C)NC(=S)NC1c1cccc(OC)c1 (stereo not shown) [T14]	–	3.5 ± 0.6	–
CCOC(=O)C1=C(C)NC(=O)NC1c1ccc(Cl)c(Cl)c1 (stereo not shown) [U5]	–	15.8 ± 0.5	–
CCOC(=O)C1=C(C)NC(=O)NC1c1ccc(C(F)(F)F)cc1 (stereo not shown) [U6]	–	11.5 ± 0.4	–
CCOC(=O)C1=C(C)NC(=O)NC1c1ccc(Cl)cc1Cl (stereo not shown) [U7]	–	15.3 ± 1	–
COC(=O)C1=C(C)NC(=O)NC1c1cccc(Br)c1 (stereo not shown) [U12]	–	2 ± 0.2	–
CCOC(=O)C1=C(C)NC(=O)NC1c1cccc(O)c1 (stereo not shown) [U13]	–	0.003 ± 0.001	–
CCOC(=O)C1=C(C)NC(=O)NC1c1ccc(F)cc1 (stereo not shown) [U14, Ethyl 4-(4-fluorophenyl)-6-methyl-2-oxo-1,2,3,4-tetrahydropyrimidine-5-carboxylate]	–	–	remaining at 1 h [2]: 74.1%; microsomal CLint [5]: 5.4 µL/min/mg; half-life [6]: 2.47 h
CCOC(=O)C1=C(C)NC(=O)NC1c1ccc(F)cc1 (stereo not shown) [U14]	–	6.2 ± 0.3	–
COC(=O)C1=C(C)NC(=O)NC1c1ccccc1 (stereo not shown) [U15, Methyl 6-methyl-2-oxo-4-phenyl-1,2,3,4-tetrahydropyrimidine-5-carboxylate]	–	–	remaining at 1 h [2]: 93%; microsomal CLint [5]: 1.2 µL/min/mg; half-life [6]: 10.7 h

— publication doi:10.1101/2025.10.24.684310v1 (biorxiv, 2025)
